Counter-ions that a name gives are not always drawn. Like-named read-outs stand apart in the source and are kept apart here.
What was measured:
[1] = biological target: T1, amorpha-4,11-diene synthase (ADS) (Artemisia annua, UniProt Q9AR04); assay: Inhibition of amorpha-4,11-diene synthase, radiolabelled FDP assay; format: biochemical
T1 construct: made in house
Experimental: (§1) Recombinant AS and ADS were prepared and purified according to previously published procedures[17],[18] and both (R)-11 and (S)-11 were tested as inhibitors using a standard radiolabelled assay involving conversion of tritium labelled FDP by each enzyme and scintillation counting of the pentane extractable products.[5b] Terpene synthases are known to efficiently bind cation-PPi pairs and inhibition was assessed both in the presence and absence of 250 μM diphosphate (Table 1). Synergistic inhibition of aza-analogues 11 with diphosphate has been observed previously for a variety of other terpene synthases.[5d],[13c],[14]
(§2) Kinetic data were fitted by non-linear regression to the Michaelis–Menten equation (v0 = kcat[E][S]/(KM + [S]). The mode of inhibition was determined by inspection of double reciprocal plots and observed to be competitive in all cases where inhibition was significant at low concentrations of 11. KI was determined from a plot of inhibitor concentration versus K′M/(kcat[E]) where K′M = KM(1 + [I]/KI). […]
(§3) 2. Steady-state kinetics of DCS-His6, ADS and AS.
(§4) Kinetic assays were carried out according to the standard, linear range, micro-assay procedure previously described.5 The reaction mixtures containing buffer, FDP and protein were prepared on ice in a total volume of 250 µL and were overlaid with ca. 0.8 mL of HPLC-grade hexane prior to incubation. The assay mixtures were initiated by addition of enzyme and incubated at room temp (30 °C) for 10 min. The reactions were immediately ice-cooled and quenched by addition of 200 µL of 100 mM EDTA (pH 8.5) and brief vortexing. The hexane overlay and two additional 1 mL hexane extracts were passed through a short pipette column containing silica gel. The column was washed with additional hexane (1 mL) and the combined filtrates were analysed by liquid scintillation counting using 15 mL of scintillation cocktail Ecoscint O. Steady-State kinetic parameters for DCS-His6 and mutants were obtained by direct fitting of the data to the Michaelis-Menten equation by nonlinear least squares regression in conjunction with the graphical procedures developed by Lineweaver-Burk using the commercial SigmaPlot package (Systat Software).

[2] = biological target: T2, aristolochene synthase from Penicillium roqueforti (AS) (Penicillium roqueforti, UniProt Q03471); assay: Inhibition of aristolochene synthase, radiolabelled FDP assay; format: biochemical
T2 construct: made in house
Experimental: as §1, §2, §3, §4

[3] = biological target: T3, δ-cadinene synthase (DCS-His6) (Gossypium arboreum, UniProt Q39761); assay: Inhibition of δ-cadinene synthase, radiolabelled FDP assay; format: biochemical
T3 construct: hexahistidine (His6) (C); made in house; host or cells: E. coli BL-21 (DE3)
T3 sequence (Q39761 1-554): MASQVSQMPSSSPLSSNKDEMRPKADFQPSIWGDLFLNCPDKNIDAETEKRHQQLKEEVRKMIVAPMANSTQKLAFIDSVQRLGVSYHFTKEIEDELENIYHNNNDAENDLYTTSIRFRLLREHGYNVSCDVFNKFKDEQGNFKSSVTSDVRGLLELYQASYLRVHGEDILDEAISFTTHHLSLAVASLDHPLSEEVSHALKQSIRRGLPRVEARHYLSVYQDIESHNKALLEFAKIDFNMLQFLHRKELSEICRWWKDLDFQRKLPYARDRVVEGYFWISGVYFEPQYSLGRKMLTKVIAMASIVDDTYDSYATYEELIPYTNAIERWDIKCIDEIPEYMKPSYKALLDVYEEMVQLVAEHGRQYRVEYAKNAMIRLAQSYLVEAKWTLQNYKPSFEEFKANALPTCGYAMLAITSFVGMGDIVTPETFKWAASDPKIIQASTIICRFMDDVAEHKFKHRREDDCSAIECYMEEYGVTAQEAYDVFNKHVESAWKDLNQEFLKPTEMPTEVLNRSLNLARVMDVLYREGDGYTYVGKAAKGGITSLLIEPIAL
Experimental: as §1
Kinetic data were fitted by non-linear regression to the Michaelis–Menten equation (v0 = kcat[E][S]/(KM + [S]). The mode of inhibition was determined by inspection of double reciprocal plots and observed to be competitive in all cases where inhibition was significant at low concentrations of 11. KI was determined from a plot of inhibitor concentration versus K′M/(kcat[E]) where K′M = KM(1 + [I]/KI).
Recombinant DCS was generated with a C-terminal hexahistidine tag (DCS-His6) as previously described.[19] Inhibition assays were carried out using the same protocol used for AS and ADS. […] DCS clearly requires a cation–anion pair in its active site for effective inhibition by aza-analogues. Our results provide strong evidence for 1,6-cyclase activity for DCS. […]
as §3, §4

DCS = biological target: DCS; parameters: method as in PMID 22397618; settings: cited from earlier work
[4] = +250 μM PPi, read-out: K i (μM) (+250 μM PPi)
[5] = K i (μM) (+250 μM PPi), +250 μM PPi

T1 sequence (Q9AR04 whole entry): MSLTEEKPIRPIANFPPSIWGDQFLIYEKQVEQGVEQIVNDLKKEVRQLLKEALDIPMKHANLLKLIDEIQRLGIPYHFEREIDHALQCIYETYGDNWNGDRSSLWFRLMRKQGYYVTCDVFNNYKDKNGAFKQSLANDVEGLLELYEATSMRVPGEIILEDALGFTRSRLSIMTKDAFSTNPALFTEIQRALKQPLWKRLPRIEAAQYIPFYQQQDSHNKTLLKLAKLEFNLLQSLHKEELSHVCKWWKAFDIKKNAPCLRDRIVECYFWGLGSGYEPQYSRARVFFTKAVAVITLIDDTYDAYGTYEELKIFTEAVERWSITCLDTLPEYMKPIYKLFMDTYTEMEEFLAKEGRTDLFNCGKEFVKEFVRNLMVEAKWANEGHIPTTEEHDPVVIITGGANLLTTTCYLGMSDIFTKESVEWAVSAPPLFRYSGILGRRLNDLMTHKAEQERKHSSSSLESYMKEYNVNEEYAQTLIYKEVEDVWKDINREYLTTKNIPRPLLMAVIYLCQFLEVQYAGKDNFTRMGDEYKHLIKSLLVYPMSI
T2 sequence (Q03471 whole entry): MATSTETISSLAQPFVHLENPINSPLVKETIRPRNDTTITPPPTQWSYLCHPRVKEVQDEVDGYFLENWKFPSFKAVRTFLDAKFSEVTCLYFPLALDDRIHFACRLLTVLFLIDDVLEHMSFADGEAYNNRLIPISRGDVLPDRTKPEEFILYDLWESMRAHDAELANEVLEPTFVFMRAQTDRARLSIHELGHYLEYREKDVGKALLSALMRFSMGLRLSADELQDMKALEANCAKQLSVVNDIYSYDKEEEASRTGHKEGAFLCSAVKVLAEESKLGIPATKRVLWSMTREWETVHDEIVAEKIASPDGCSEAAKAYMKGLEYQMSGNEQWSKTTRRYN

Compound	Ki [1, 4]	Ki ([1]; absence of PPi, read-out: K i)	Ki [2, 5]	Ki ([2]; K i (μM), absence of PPi)	Ki [3, 4]	Ki ([3]; absence of PPi, read-out: K i)	Inhibition in words ([3]; in the absence of PPi)	melting point	Ki (DCS; DCS, 6F-FDP as substrate analogue)	Products when incubated with DCS (DCS; pentane-extractable products)
CC(C)=CCCN(C)[C@@H]1CC=C(C)CC1 [(S)-11]	1.5 ± 0.5 µM	25 ± 5 µM	255 ± 23 µM	295 ± 23 µM	3.44 ± 1.43 µM	273 ± 77 µM	–	–	–	–
CC(C)=CCCN(C)[C@H]1CC=C(C)CC1 [(R)-11]	3.7 ± 1.9 µM	50 ± 17 µM	489 ± 62 µM	472 ± 48 µM	2.5 ± 0.5 µM	1700 ± 300 µM	weak inhibitor	–	–	–
CC(C)=CCCN(C)[C@@H]1CC=C(C)CC1 (as salt: hydrochloride) [(S)-11]	–	–	–	–	–	–	–	131 to 133 °C	–	–
CC(C)=CCCC(C)=C(F)CCC(C)=CCOP(=O)(O)OP(=O)(O)O [6F-FDP, 6-fluorofarnesyl diphosphate]	–	–	–	–	–	–	–	–	2.4 µM	no detectable pentane-extractable products

— publication PMC6369673, “Silent catalytic promiscuity in the high-fidelity terpene cyclase δ-cadinene synthase” (Organic & Biomolecular Chemistry, 2019)
